Publication PMC10098121, “Amphipathic barbiturates as marine product mimics with cytolytic and immunogenic effects on head and neck squamous cell carcinoma cell lines” (Frontiers in Pharmacology, 2023)

Experiments:
[1] = system: human red blood cells; assay: Hemolysis assay; assay type: cell-based; conditions: for EC50: Homo sapiens, Erythrocyte, 1 h, 37°C, highest concentration tested 500 μM, average of three experiments, read-out: EC50 hemolytic activity against human red blood cells
Procedure: The hemolytic effect of the MPMs was determined using a hemolysis assay as previously described ([Paulsen et al., 2021]). Briefly, hemolysis was determined using a heparinized fraction (10 IU/mL) of freshly drawn blood. The blood collected in ethylenediaminetetraacetic acid-containing test tubes (Vacutest, KIMA, Arzergrande, Italy) was used for the determination of the hematocrit (hct). The heparinized blood was washed 3 × with pre-warmed phosphate-buffered saline (PBS) and adjusted to a final hct of 4%. MPMs in DMSO (50 mM) were added to a 96-well polypropylene V-bottom plate (NUNC, Fisher Scientific, Oslo, Norway) and serially diluted. The test concentration range was 4–500 μM with DMSO contents ≤1%. A solution of 1% triton X-100 was used as a positive control for 100% hemolysis. As a negative control, a solution of 1% DMSO in PBS was included. Red blood cells (1% v/v final concentration) were added to the well plate and incubated at 37°C and 800 rpm for 1 h. After centrifugation (5 min, 3000 g), 100 μL from each well was transferred to a 96-well flat-bottomed microtiter plate, and absorbance was measured at 545 nm with a microplate reader (VersaMaxTM, Molecular Devices, Sunnyvale, CA, United States). The percentage of hemolysis was calculated as the ratio of the absorbance in the MPM treated and surfactant-treated samples, corrected for the PBS background. Three independent experiments were performed, and EC50 values are presented as averages.

[2] = system: HSC-3; assay: High throughput drug screening (CellTiter-Glo, DSS); assay type: cell-based, human; conditions: for drug sensitivity score (DSS): HSC-3, 72 h, 10-100,000 nM, myogel, non-irradiated; for delta DSS (ΔDSS): HSC-3, DSS irradiated (2 Gy) minus DSS non-irradiated, >5 synergy, <–5 antagonism
Procedure: (§1) The MPMs were screened against a panel of […] different cell lines (HSC-3, UT-SCC-8, UT-SCC-24A, UT-SCC-24B, UT-SCC-42A, UT-SCC-42B and NOF) at the High Throughput Biomedicine Unit (HTB) at the Institute for Molecular Medicine Finland (FIMM). On day 1, black-walled 384-well plates were coated with 5 µl diluted myogel (0.5 mg/ml) per well using an automated reagent dispenser (MultiFlo FX, BioTek, Winooski, VT, United States). On day 2, 500 cells per well were seeded in 20 µl of complete media using the MultiFlo FX (BioTek), and the cells were left to adhere overnight. On day 3, the MPMs, cisplatin, DMSO and Benzethonium chloride were added to the cells using an automatic liquid handler (Echo 550, Labcyte Inc., San Jose, CA, United States). Cisplatin and the MPMs were added to yield five different concentrations in a ten-fold dilution series ranging from 10 to 100,000 nM. Each concentration was tested in triplicate wells. DMSO (0.1%) and benzethonium chloride (100 µM) served as negative and positive control, respectively. Three hours later, some of the plates were irradiated with 2 Gy in a gamma irradiator (OB29/4, STS, Braunschweig, Germany). All plates were taken to the irradiation room to ensure similar handling of the plates. 72 h later, the plates were cooled to room temperature before 25 µl of CellTiter-Glo 2.0 reagent (Promega, Madison, WI, USA) was added to each well using the MultiFlo FX (BioTek). Next, the plates were centrifuged for 5 min at 1,000 rpm before the luminescence signal was measured with the PHERAstar FS HT reader (BMG LABTECH GmbH, Ortenberg, Germany). The raw data was analyzed with the Breeze software (https://breeze.fmm.fi), which normalized the luminescence signal from treated cells against the signal from negative and positive control cells to calculate the percentage of inhibition and generate dose-response curves, which were then used to calculate drug sensitivity scores (DSS). The DSS is a parameter which combines the IC50, the slope of the dose-response curve, and the minimum and maximum responses into a single metric, as previously described ([Yadav et al., 2014]). Quality control was performed by calculation of the Z′-factor, which was >0.7 for all cell lines, indicating high quality of the assay ([Zhang et al., 1999]).

[3] = system: NOF (normal oral fibroblasts); assay: as above; assay type: cell-based, human; conditions: for drug sensitivity score (DSS): 72 h, 10-100,000 nM, myogel, non-irradiated; for delta DSS (ΔDSS): DSS irradiated (2 Gy) minus DSS non-irradiated, >5 synergy, <–5 antagonism
Procedure: as §1

[4] = system: UT-SCC-106A; assay: as above; assay type: cell-based, human; conditions: for drug sensitivity score (DSS): 72 h, 10-100,000 nM, myogel, non-irradiated; for delta DSS (ΔDSS): DSS irradiated (2 Gy) minus DSS non-irradiated, >5 synergy, <–5 antagonism
Procedure: as §1

[5] = system: UT-SCC-24A; assay: as above; assay type: cell-based, human; conditions: for drug sensitivity score (DSS): 72 h, 10-100,000 nM, myogel, non-irradiated; for delta DSS (ΔDSS): DSS irradiated (2 Gy) minus DSS non-irradiated, >5 synergy, <–5 antagonism
Procedure: as §1

[6] = system: UT-SCC-24B; assay: as above; assay type: cell-based, human; conditions: for drug sensitivity score (DSS): 72 h, 10-100,000 nM, myogel, non-irradiated; for delta DSS (ΔDSS): DSS irradiated (2 Gy) minus DSS non-irradiated, >5 synergy, <–5 antagonism
Procedure: as §1

[7] = system: UT-SCC-42A; assay: as above; assay type: cell-based, human; conditions: for drug sensitivity score (DSS): 72 h, 10-100,000 nM, myogel, non-irradiated; for delta DSS (ΔDSS): DSS irradiated (2 Gy) minus DSS non-irradiated, >5 synergy, <–5 antagonism
Procedure: as §1

[8] = system: UT-SCC-42B; assay: as above; assay type: cell-based, human; conditions: for drug sensitivity score (DSS): 72 h, 10-100,000 nM, myogel, non-irradiated; for delta DSS (ΔDSS): DSS irradiated (2 Gy) minus DSS non-irradiated, >5 synergy, <–5 antagonism
Procedure: as §1

[9] = system: UT-SCC-8; assay: as above; assay type: cell-based, human; conditions: for drug sensitivity score (DSS): UT-SCC-8, 72 h, 10-100,000 nM, myogel, non-irradiated; for delta DSS (ΔDSS): UT-SCC-8, DSS irradiated (2 Gy) minus DSS non-irradiated, >5 synergy, <–5 antagonism
Procedure: as §1

[10] = system: Bacillus subtilis 168; assay: Bacterial minimum inhibitory concentration (broth microdilution); assay type: cell-based; conditions: Bacillus subtilis 168, 48 h, 35 °C, di-TFA salts
Procedure: (§2) Method for determination of bacterial minimum inhibitory concentration (MIC) Stock solutions of the water-soluble compounds were prepared by dissolving them in ultrapure water (Milli-Q H2O, Millipore, MA, USA). The less water-soluble compounds were first dissolved in 25 - 50 µL 100% DMSO before further dilution with ultrapure water. The DMSO concentration was always less than 1% in the working concentration of each compound. A modified broth microdilution susceptibility test based on the CLSI M07-A9 protocol, [2] was used to determine minimal inhibitory concentrations (MIC). Briefly, the test compounds were two-fold diluted with ultrapure water in polystyrene 96-well flat-bottom microplates (NUNC, Roskilde, Denmark). The bacterial inoculum was diluted to 2.5 - 3 x 10^4 cells/mL in Mueller-Hinton broth (MHB, Difco Laboratories, USA) and added to the different diluted compounds in a ratio of 1:1. Positive control (ciprofloxacin, Sigma-Aldrich, USA), negative control (bacteria + water), and media control (media + water) were included in each experiment. The microplates were incubated for 48 h at 35 °C in an EnVision microplate reader (PerkinElmer, Waltham, MA, USA). The lowest concentration of compounds that caused no bacterial growth, as determined by optical density (OD600) measurements, was defined as the MIC value. All compounds were tested in 3 technical replicates.
(§3) Supplementary Video S1. HSC-3 cells were seeded at 100% confluence and a standard scratch wound migration assay was performed. The cells were imaged every 2 hours for 24 hours. The video

[11] = system: Escherichia coli ATCC 25922; assay: as above; assay type: cell-based; conditions: ATCC25922; Escherichia coli ATCC 25922, 48 h, 35 °C, di-TFA salts
Procedure: as §2, §3

[12] = system: Pseudomonas aeruginosa ATCC 27853; assay: as above; assay type: cell-based; conditions: ATCC27853; Pseudomonas aeruginosa ATCC 27853, 48 h, 35 °C, di-TFA salts
Procedure: as §2, §3

[13] = system: Staphylococcus aureus ATCC 9144; assay: as above; assay type: cell-based; conditions: ATCC9144; Staphylococcus aureus ATCC 9144, 48 h, 35 °C, di-TFA salts
Procedure: as §2, §3

CN(C)CCN1C(=O)N(CCN(C)C)C(=O)C(CCCc2ccccc2)(CCCc2ccccc2)C1=O [MPM-2:2]
EC50 [1]: > 500 µM
drug sensitivity score (DSS) [2]: 16,8
delta DSS (ΔDSS) [2]: 1,4
drug sensitivity score (DSS) [3]: 19,2
delta DSS (ΔDSS) [3]: -1,2
drug sensitivity score (DSS) [4]: 18,6
delta DSS (ΔDSS) [4]: -1,5
drug sensitivity score (DSS) [5]: 18,1
delta DSS (ΔDSS) [5]: -0,4
drug sensitivity score (DSS) [6]: 17,8
delta DSS (ΔDSS) [6]: -1,5
drug sensitivity score (DSS) [7]: 13,4
delta DSS (ΔDSS) [7]: 0,9
drug sensitivity score (DSS) [8]: 12,9
delta DSS (ΔDSS) [8]: -0,4
drug sensitivity score (DSS) [9]: 17
delta DSS (ΔDSS) [9]: 0,2
MIC [10]: 32 µg/mL
MIC [11]: 32 µg/mL
MIC [12]: > 64 µg/mL
MIC [13]: > 64 µg/mL

NCCCN1C(=O)N(CCCN)C(=O)C(CCCc2ccccc2)(CCCc2ccccc2)C1=O [MPM-3:0]
EC50 [1]: > 500 µM
drug sensitivity score (DSS) [2]: 16,1
delta DSS (ΔDSS) [2]: 0
drug sensitivity score (DSS) [3]: 18,3
delta DSS (ΔDSS) [3]: -0,6
drug sensitivity score (DSS) [4]: 17,1
delta DSS (ΔDSS) [4]: -0,6
drug sensitivity score (DSS) [5]: 14,3
delta DSS (ΔDSS) [5]: -1,8
drug sensitivity score (DSS) [6]: 18
delta DSS (ΔDSS) [6]: -0,6
drug sensitivity score (DSS) [7]: 11,7
delta DSS (ΔDSS) [7]: -1,1
drug sensitivity score (DSS) [8]: 10,1
delta DSS (ΔDSS) [8]: -0,1
drug sensitivity score (DSS) [9]: 16,5
delta DSS (ΔDSS) [9]: -0,6
MIC [10]: 16 µg/mL
MIC [11]: 64 µg/mL
MIC [12]: 64 µg/mL
MIC [13]: 32 µg/mL

CNCCCCN1C(=O)N(CCCCNC)C(=O)C(CCCc2ccccc2)(CCCc2ccccc2)C1=O [MPM-4:1]
EC50 [1]: > 500 µM
drug sensitivity score (DSS) [2]: 14,8
delta DSS (ΔDSS) [2]: -0,4
drug sensitivity score (DSS) [3]: 18,5
delta DSS (ΔDSS) [3]: -0,8
drug sensitivity score (DSS) [4]: 15,8
delta DSS (ΔDSS) [4]: -0,8
drug sensitivity score (DSS) [5]: 15,5
delta DSS (ΔDSS) [5]: -1,6
drug sensitivity score (DSS) [6]: 16,4
delta DSS (ΔDSS) [6]: -0,5
drug sensitivity score (DSS) [7]: 9,9
delta DSS (ΔDSS) [7]: -0,1
drug sensitivity score (DSS) [8]: 10,2
delta DSS (ΔDSS) [8]: -1,1
drug sensitivity score (DSS) [9]: 14,5
delta DSS (ΔDSS) [9]: 0,6
MIC [10]: 8 µg/mL
MIC [11]: > 64 µg/mL
MIC [12]: > 64 µg/mL
MIC [13]: 32 µg/mL

NCCCCCN1C(=O)N(CCCCCN)C(=O)C(CCCc2ccccc2)(CCCc2ccccc2)C1=O [MPM-5:0]
EC50 [1]: 313 µM
hemolytic activity against red blood cells (in words) ([1]; test range 4–500 μM): the second lowest RBC EC50
drug sensitivity score (DSS) [2]: 17,6
delta DSS (ΔDSS) [2]: 0,2
drug sensitivity score (DSS) [3]: 19
delta DSS (ΔDSS) [3]: -1,2
drug sensitivity score (DSS) [4]: 17,9
delta DSS (ΔDSS) [4]: -1
drug sensitivity score (DSS) [5]: 17,4
delta DSS (ΔDSS) [5]: -1,2
drug sensitivity score (DSS) [6]: 18,2
delta DSS (ΔDSS) [6]: -0,5
drug sensitivity score (DSS) [7]: 13,5
delta DSS (ΔDSS) [7]: -0,8
drug sensitivity score (DSS) [8]: 11,5
delta DSS (ΔDSS) [8]: -0,5
drug sensitivity score (DSS) [9]: 18,1
delta DSS (ΔDSS) [9]: 0,4
MIC [10]: 4 µg/mL
MIC [11]: 32 µg/mL
MIC [12]: 32 µg/mL
MIC [13]: 8 µg/mL
